In patent US5750538A, “Method of treating hypercholesterolemia and related disorders” (Novo Nordisk A/S, priority 1996, dated 1998):

Target: T1, squalene synthetase (Rattus norvegicus, UniProt Q02769)
T1 construct: Rat liver microsomal preparation; from tissue; host or cells: liver microsomes of male rats (100,000 x g pellet)
T1 sequence (Q02769 1-416): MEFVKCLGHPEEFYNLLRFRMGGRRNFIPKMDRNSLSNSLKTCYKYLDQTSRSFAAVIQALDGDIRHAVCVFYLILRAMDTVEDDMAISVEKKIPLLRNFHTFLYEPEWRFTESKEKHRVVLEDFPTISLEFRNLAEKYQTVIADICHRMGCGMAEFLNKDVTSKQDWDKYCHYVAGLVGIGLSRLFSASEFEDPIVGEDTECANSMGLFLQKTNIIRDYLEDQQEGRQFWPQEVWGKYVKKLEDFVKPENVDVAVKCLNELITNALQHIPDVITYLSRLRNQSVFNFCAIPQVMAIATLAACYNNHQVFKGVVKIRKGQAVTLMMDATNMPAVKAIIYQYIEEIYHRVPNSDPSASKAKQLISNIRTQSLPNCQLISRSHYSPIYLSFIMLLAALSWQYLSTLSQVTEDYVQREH
Test: Squalene synthetase inhibition assay in vitro (rat liver microsomal preparation, 3H-FPP)
Assay type: biochemical
Settings: rat liver microsomal enzyme, 3H-FPP 10 μM final conc.; for SQUALENE SYNTHETASE INHIBITION % max: maximal inhibition; for IC50: 10 min incubation at 37° C.
Experimental: Squalene synthease inhibition assay in vitro
a) Rat liver microsomal preparation
Male rats weighing 200 to 300 g were decapitated and the liver removed and placed in 10 ml icecold 0.25M sucrose, 2 mM EDTA and 50 mM Tris, HCl buffer pH 7.4. The liver was homogenized in 3×volume buffer relative to weight using a glass teflon Potter-Elvehjem homogenizer set to 1000 rpm.
The homogenate was then centrifuged for 15 min. at 12,000×g at 4° C. The resultant supernatant was gently decanted into 10 ml ultracentrifuge vials and treated at 100,000×g for 60 min. at 4° C. The microsomal pellet was resuspended in a final volume of 1 ml icecold 0.1M phosphate buffer pH 7.4 per gram liver tissue by gentle homogenization in a glass Potter-Elvehjem at 800 rpm. Aliquots of 0.5 ml (approx. 20 mg/ml protein) was stored at -80° C. until further use in the squalene synthetase inhibition assay.
To begin the assay, 20 μl of the compound of this invention or vehicle solution is added to each 16×150 screw-cap culture tube on ice. Then 580 μl of N2 flushed assay buffer is pipetted into each tube. 100 μl of cofactor is next added to each tube, followed by 1 00 μl of a dilution of microsomal enzyme (approximately 80 μg protein). The tubes are preincubated for 10 min. at 37° C., and 200 μl of the ^3 H-FPP (200,000 dpm, 10 μM final conc.) is added to each tube at two second intervals. The tubes are then incubated for exactly 10 min., shaking at 150 oscillations per min. After the 10 min. incubation, the reaction is stopped by the addition of 1 ml of 15% KOH in ethanol, and the tubes are incubated for 30 min. in a 65° C. water bath for saponification of lipids and solubilization of proteins. The tubes are cooled on ice for five min. The samples are next extracted with 5 ml of petroleum ether by shaking for 10 min. at low speed on a metabolic shaker. Each lower aqueous layer is frozen in a dry ice/alcohol bath (2-propanol/methanol, 1:1), and each organic layer is poured into another set of 16 ×150 screw-top culture tubes containing 2 ml of deionized water. Each ether layer is washed by vortexing each tube for 5 sec. The aqueous layers are again frozen in the dry ice/alcohol bath, and the ether is poured into scintillation vials. 10 ml of AquaSol® is next added to each vial, and the vials are counted for 5 min. in a scintillation counter. Percent inhibitions are calculated from the counts obtained.

Structure (SMILES)	SQUALENE SYNTHETASE INHIBITION % max	IC50
CCCCCCCSc1nsnc1C1CN2CCC1CC2 (centres unmarked)	92%	890 nM
c1ccc(CCCSc2nsnc2C2CN3CCC2CC3)cc1 (centres unmarked)	89%	900 nM
c1ccc(Oc2ccc(COc3nsnc3C3CN4CCC3CC4)cc2)cc1 (centres unmarked)	83%	300 nM
c1ccc(-c2ccc(COc3nsnc3C3CN4CCC3CC4)cc2)cc1 (centres unmarked)	60%	3900 nM
c1ccc(CCCSc2nsnc2[C@H]2CN3CC[C@@H]2C3)cc1 (relative stereo)	55%	12400 nM
c1ccc(CCCSc2nsnc2[C@H]2CN3CCC[C@@H]2C3)cc1 (single isomer, unassigned)	72%	5100 nM
c1ccc(CCCSc2nsnc2[C@@H]2CN3CCC[C@@H]2C3)cc1 (single isomer, unassigned)	80%	1100 nM
